Assays:
[1] = system: Veillonella atypica (ATCC 17744) (V.a.); experiment: nitrate reductase (NR) activity of V.a (Griess test); type: cell-based; conditions: for NR activity of CHX treated V.a (OD): Reduced Transport buffer
Description: (§1) For evaluation of nitric oxide producing capability of oral bacteria, overnight cultures of test organisms were washed once and transferred into a medium without any nitrate or nitrite compounds. A 0.5% (or 1%) KNO3 was added to the medium, and further incubated anaerobically at 37° C. for 24-48 hours. The concentration of nitrite (due to reduction of nitrate by nitrate reductase) was determined by Griess Test over a desired period of time.
(§2) To examine the effect of natural and chemical antimicrobial agents on NO production, test bacteria were pre-exposed to magnolia bark extract (MBE) (a natural germ-kill compound), peppermint oil, and chlorhexidine (CHX). The activities of nitrate reductase from oral bacteria were assayed by Griess test as described above. No treatment controls were included for each test bacterial species. The production of nitrite was reduced if the test antimicrobial compounds affected the nitrate reductase activity. Dose response curves were prepared.
V. atypica was grown in RCM medium without (NH4)2SO4 (to avoid the NH4 affecting Griess reagent); and without agar (0.05%, to avoid affecting the OD measurement).
The method used was the same as that for A.a., except the V.a cell concentration was adjusted to OD550 nm=0.7 (10^8 CFR/ml) in Reduced Transport buffer. The NR activity was also determined in the same buffer system. […]
(§3) Test bacteria cells were incubated with 1% cysteine in growth medium and 0.3% of a nitrate source. Controls contained no cysteine.

[2] = system: oral microbiota; conditions: mouthwash containing 0.12% of chlorhexidine, cited from earlier work
[3] = system: Aggregatibacter actinomycetemcomitans (A.a.); experiment: short-term time-kill against A.a. (viable colony on agar); type: cell-based; set-up: key to viable colony: +: viable colony; −: no viable colony; conditions: for viable colony: stop reagent
Description: Fresh grown cells were harvested and adjusted to OD550 nm=0.5, then mixed with CHX (75-1,000 μg/ml). At different time points, an aliquot of cells was removed and mixed with (or without) stop reagent (0.5% Tween 80 and 0.07% Lecithin) to stop the CHX reaction on cells. The treated cells were centrifuged to remove the supernatant that contained CHX, and the cell pellet was spotted on BHI agar (supplemented with 0.001% Hemin, 0.0001% Vitamin K) for cell viability. Fresh grown cells were harvested and mixed with MBE for a short period of time and the viability of treated cells were evaluated. 10% DMSO was used to wash the treated cells and the MBE was removed from the assay system. Immediately after treatment, 10% DMSO was added to the cell mixture. The cell mixture was then centrifuged and washed once more with 10% DMSO. Cells treated with MBE for various times were spotted on an agar plate, […] and noted for viable colony development.

[4] = system: Aggregatibacter actinomycetemcomitans (A.a.); experiment: nitrate reductase (NR) activity of A.a. (Griess test); type: cell-based
Description: as §1, §2
A. actinomycetemcomitans (A.a.) was grown anaerobically in THB broth supplemented with 1% yeast extract with 0.001% Hemin, and 0.0001% Vitamin K.
The nitrate source KNO3 (0.1% final) was added to respective growth media for individual test bacteria and incubated for 24-48 hours, then 20 μl of the culture broth was withdrawn and tested for nitrite with Griess reagent.
Test bacteria were grown in respective media anaerobically for 48 hours. Cells were centrifuged and re-suspended in buffer or fresh medium for NR activity testing. […]
as §3

[5] = chlorhexidine >=10 μg/ml, summary

- activities of nitrate reductase [1, 5]: significantly inhibits
- NR activity of CHX treated A.a. ([4]; CHX 100 μg/ml for 10 min): inhibited NR activity
- NR activity of CHX treated A.a. ([4]; CHX 1,000 μg/ml (0.1%) for 1 min): completely inhibited NR activity
- activities of nitrate reductase [4, 5]: significantly inhibits
SMILES: [H]/N=C(\N/C(=N/[H])NCCCCCCNC(=N)NC(=N)Nc1ccc(Cl)cc1)Nc1ccc(Cl)cc1 [CHX, chlorhexidine]
- NR activity of CHX treated V.a (OD) ([1]; CHX 10 μg/ml, 1 min Treatment): 0.266 OD
- NR activity of CHX treated V.a (OD) ([1]; CHX 10 μg/ml, 10 min Treatment): 0.300 OD
- NR activity of CHX treated V.a (OD) ([1]; CHX 50 μg/ml, 1 min Treatment): 0.304 OD
- NR activity of CHX treated V.a (OD) ([1]; CHX 50 μg/ml, 10 min Treatment): 0.282 OD
- NR activity of CHX treated V.a (OD) ([1]; CHX 100 μg/ml, 1 min Treatment): 0.255 OD
- NR activity of CHX treated V.a (OD) ([1]; CHX 100 μg/ml, 10 min Treatment): 0.280 OD
- NR activity of CHX treated V.a (OD) ([1]; CHX 250 μg/ml, 1 min Treatment): 0.190 OD
- NR activity of CHX treated V.a (OD) ([1]; CHX 250 μg/ml, 10 min Treatment): 0.161 OD
- NR activity of CHX treated V.a (OD) ([1]; CHX 500 μg/ml, 1 min Treatment): 0.170 OD
- NR activity of CHX treated V.a (OD) ([1]; CHX 500 μg/ml, 10 min Treatment): 0.162 OD
- VSC-producing bacteria and enteric nitric oxide producing bacteria [2]: reduced
- oral and plasma nitrite levels ([2]; healthy human volunteers): reduced
- systolic and diastolic blood pressure ([2]; healthy human volunteers): sustained increase
- viable colony ([3]; CHX 75 μg/ml, treatment time 0 min): +
- viable colony ([3]; CHX 75 μg/ml, treatment time 5 min): +
- viable colony ([3]; CHX 75 μg/ml, treatment time 30 min): +
- viable colony ([3]; CHX 75 μg/ml, treatment time 60 min): +
- viable colony ([3]; CHX 100 μg/ml, treatment time 0 min): +
- viable colony ([3]; CHX 100 μg/ml, treatment time 1 min): +
- viable colony ([3]; CHX 100 μg/ml, treatment time 3 min): +
- viable colony ([3]; CHX 100 μg/ml, treatment time 5 min): +
- viable colony ([3]; CHX 100 μg/ml, treatment time 10 min): +
- viable colony ([3]; CHX 100 μg/ml, treatment time 30 min): +
- viable colony ([3]; CHX 100 μg/ml, treatment time 60 min): −
- viable colony ([3]; CHX 200 μg/ml, treatment time 0 min): +
- viable colony ([3]; CHX 200 μg/ml, treatment time 1 min): +
- viable colony ([3]; CHX 200 μg/ml, treatment time 2 min): +
- viable colony ([3]; CHX 200 μg/ml, treatment time 3 min): +
- viable colony ([3]; CHX 200 μg/ml, treatment time 5 min): +
- viable colony ([3]; CHX 200 μg/ml, treatment time 10 min): +
- viable colony ([3]; CHX 200 μg/ml, treatment time 30 min): −
- viable colony ([3]; CHX 200 μg/ml, treatment time 60 min): −
- viable colony ([3]; CHX 300 μg/ml, treatment time 0 min): +
- viable colony ([3]; CHX 300 μg/ml, treatment time 1 min): +
- viable colony ([3]; CHX 300 μg/ml, treatment time 2 min): +
- viable colony ([3]; CHX 300 μg/ml, treatment time 3 min): +
- viable colony ([3]; CHX 300 μg/ml, treatment time 5 min): +
- viable colony ([3]; CHX 300 μg/ml, treatment time 10 min): +
- viable colony ([3]; CHX 300 μg/ml, treatment time 30 min): −
- viable colony ([3]; CHX 300 μg/ml, treatment time 60 min): −
- viable colony ([3]; CHX 500 μg/ml, treatment time 0 min): +
- viable colony ([3]; CHX 500 μg/ml, treatment time 1 min): +
- viable colony ([3]; CHX 500 μg/ml, treatment time 2 min): +
- viable colony ([3]; CHX 500 μg/ml, treatment time 3 min): +
- viable colony ([3]; CHX 500 μg/ml, treatment time 5 min): +
- viable colony ([3]; CHX 500 μg/ml, treatment time 10 min): −
- viable colony ([3]; CHX 500 μg/ml, treatment time 30 min): −
- viable colony ([3]; CHX 500 μg/ml, treatment time 60 min): −
- viable colony ([3]; CHX 750 μg/ml, treatment time 0 min): +
- viable colony ([3]; CHX 750 μg/ml, treatment time 1 min): +
- viable colony ([3]; CHX 750 μg/ml, treatment time 2 min): +
- viable colony ([3]; CHX 750 μg/ml, treatment time 3 min): +
- viable colony ([3]; CHX 750 μg/ml, treatment time 5 min): +
- viable colony ([3]; CHX 750 μg/ml, treatment time 10 min): −
- viable colony ([3]; CHX 750 μg/ml, treatment time 30 min): −
- viable colony ([3]; CHX 750 μg/ml, treatment time 60 min): −
- viable colony ([3]; CHX 1000 μg/ml, treatment time 0 min): +
- viable colony ([3]; CHX 1000 μg/ml, treatment time 1 min): +
- viable colony ([3]; CHX 1000 μg/ml, treatment time 2 min): +
- viable colony ([3]; CHX 1000 μg/ml, treatment time 3 min): −
- viable colony ([3]; CHX 1000 μg/ml, treatment time 5 min): −
- viable colony ([3]; CHX 1000 μg/ml, treatment time 30 min): −
- viable colony ([3]; CHX 1000 μg/ml, treatment time 60 min): −
- viability of A.a. ([3]; CHX 75-1,000 μg/ml, two-minute treatment, stop reagent added): limited viability
- OD at 550 nm for A.a. NR activity test ([4]; CHX 100 μg/ml, 1 min treatment, 2nd trial, 2 hr): 0.212 OD
- OD at 550 nm for A.a. NR activity test ([4]; CHX 100 μg/ml, 1 min treatment, 2nd trial, 3 hr): 0.856 OD
- OD at 550 nm for A.a. NR activity test ([4]; CHX 100 μg/ml, 1 min treatment, 3rd trial, 2 hr): 0.844 OD
- OD at 550 nm for A.a. NR activity test ([4]; CHX 100 μg/ml, 10 min treatment, 1st trial, 2 hr): 0.117 OD
- OD at 550 nm for A.a. NR activity test ([4]; CHX 100 μg/ml, 10 min treatment, 1st trial, 3 hr): 0.130 OD
- OD at 550 nm for A.a. NR activity test ([4]; CHX 100 μg/ml, 10 min treatment, 2nd trial, 2 hr): 0.284 OD
- OD at 550 nm for A.a. NR activity test ([4]; CHX 200 μg/ml, 1 min treatment, 2nd trial, 2 hr): 0.279 OD
- OD at 550 nm for A.a. NR activity test ([4]; CHX 200 μg/ml, 1 min treatment, 2nd trial, 3 hr): 0.849 OD
- OD at 550 nm for A.a. NR activity test ([4]; CHX 200 μg/ml, 1 min treatment, 3rd trial, 2 hr): 0.852 OD
- OD at 550 nm for A.a. NR activity test ([4]; CHX 200 μg/ml, 10 min treatment, 1st trial, 2 hr): 0.125 OD
- OD at 550 nm for A.a. NR activity test ([4]; CHX 200 μg/ml, 10 min treatment, 1st trial, 3 hr): 0.127 OD
- OD at 550 nm for A.a. NR activity test ([4]; CHX 200 μg/ml, 10 min treatment, 2nd trial, 2 hr): 0.125 OD
- OD at 550 nm for A.a. NR activity test ([4]; CHX 300 μg/ml, 1 min treatment, 1st trial, 2 hr): 0.263 OD
- OD at 550 nm for A.a. NR activity test ([4]; CHX 300 μg/ml, 1 min treatment, 2nd trial, 2 hr): 0.134 OD
- OD at 550 nm for A.a. NR activity test ([4]; CHX 300 μg/ml, 1 min treatment, 2nd trial, 3 hr): 0.260 OD
- OD at 550 nm for A.a. NR activity test ([4]; CHX 300 μg/ml, 1 min treatment, 3rd trial, 2 hr): 0.853 OD
- OD at 550 nm for A.a. NR activity test ([4]; CHX 300 μg/ml, 10 min treatment, 1st trial, 2 hr): 0.115 OD
- OD at 550 nm for A.a. NR activity test ([4]; CHX 300 μg/ml, 10 min treatment, 1st trial, 3 hr): 0.130 OD
- OD at 550 nm for A.a. NR activity test ([4]; CHX 300 μg/ml, 10 min treatment, 2nd trial, 2 hr): 0.129 OD
- OD at 550 nm for A.a. NR activity test ([4]; CHX 500 μg/ml, 1 min treatment, 1st trial, 2 hr): 0.284 OD
- OD at 550 nm for A.a. NR activity test ([4]; CHX 500 μg/ml, 1 min treatment, 2nd trial, 2 hr): 0.107 OD
- OD at 550 nm for A.a. NR activity test ([4]; CHX 500 μg/ml, 1 min treatment, 2nd trial, 3 hr): 0.213 OD
- OD at 550 nm for A.a. NR activity test ([4]; CHX 500 μg/ml, 1 min treatment, 3rd trial, 2 hr): 0.443 OD
- OD at 550 nm for A.a. NR activity test ([4]; CHX 500 μg/ml, 10 min treatment, 1st trial, 2 hr): 0.114 OD
- OD at 550 nm for A.a. NR activity test ([4]; CHX 500 μg/ml, 10 min treatment, 1st trial, 3 hr): 0.118 OD
- OD at 550 nm for A.a. NR activity test ([4]; CHX 500 μg/ml, 10 min treatment, 2nd trial, 2 hr): 0.131 OD
- OD at 550 nm for A.a. NR activity test ([4]; CHX 750 μg/ml, 1 min treatment, 1st trial, 2 hr): 0.148 OD
- OD at 550 nm for A.a. NR activity test ([4]; CHX 750 μg/ml, 1 min treatment, 2nd trial, 2 hr): 0.107 OD
- OD at 550 nm for A.a. NR activity test ([4]; CHX 750 μg/ml, 1 min treatment, 2nd trial, 3 hr): 0.169 OD
- OD at 550 nm for A.a. NR activity test ([4]; CHX 750 μg/ml, 1 min treatment, 3rd trial, 2 hr): 0.391 OD
- OD at 550 nm for A.a. NR activity test ([4]; CHX 750 μg/ml, 10 min treatment, 1st trial, 2 hr): 0.118 OD
- OD at 550 nm for A.a. NR activity test ([4]; CHX 750 μg/ml, 10 min treatment, 1st trial, 3 hr): 0.141 OD
- OD at 550 nm for A.a. NR activity test ([4]; CHX 750 μg/ml, 10 min treatment, 2nd trial, 2 hr): 0.112 OD
- OD at 550 nm for A.a. NR activity test ([4]; CHX 1000 μg/ml, 1 min treatment, 1st trial, 2 hr): 0.160 OD

Source: patent US20260263334A1, “COMPOSITIONS CONTAINING NITRATE-RICH FOODS AND EXTRACTS FOR SHIFTING THE ORAL MICROBIOME” (WM. WRIGLEY JR. COMPANY, priority 2023, published 2026)
